As usually defined, the melting point is the temperature, or range, at which the solid turns liquid.

One data set concerns Smn protein. Description: Smn protein assay (HTRF) in cultured cells (SMA patient fibroblasts GM03813). In kind it is cell-based, human. Particulars: 48 hours; for EC1.5x for Smn protein expression: SMA patient fibroblast cells (GM03813), HTRF, 7-point concentration data, concentration producing 1.5 times Smn protein vs DMSO vehicle control; for maximum fold (Fold) increase of Smn protein: SMA patient fibroblast cells, 7-point concentration curve, relative to vehicle control. On the procedure:
The Smn HTRF (homogeneous time resolved fluorescence) assay is used to quantify the level of Smn protein in SMA patient fibroblast cells treated with test compounds.
Cells are thawed and cultured in DMEM-10% FBS for 72 hours. Cells are trypsinized, counted and re-suspended to a concentration of 25,000 cells/mL in DMEM-10% FBS. The cell suspension is plated at 5,000 cells per well in a 96 well microtiter plate and incubated for 3 to 5 hours. […] Test compounds are serially diluted 3.16-fold in 100% DMSO to generate a 7-point concentration curve. 1 μL of test compound solution is transferred to cell-containing wells and cells are incubated for 48 hours in a cell culture incubator (37° C., 5% CO2, 100% relative humidity). Triplicate samples are set up for each test compound concentration. After 48 hours, the supernatant is removed from the wells and 25 μL of the RIPA lysis buffer, containing protease inhibitors, is added to the wells and incubated with shaking at room temperature for 1 hour. 25 μL of the diluent is added and then 35 μL of the resulting lysate is transferred to a 384-well plate, where each well contains 5 μL of the antibody solution (1:100 dilution of anti-SMN d2 and anti-SMN kryptate in SMN reconstitution buffer). The plate is centrifuged for 1 minute to bring the solution to the bottom of the wells, then incubated overnight at room temperature. Fluorescence for each well of the plate at 665 nm and 620 nm is measured on an EnVision multilabel plate reader (Perkin-Elmer).
The normalized fluorescence signal is calculated for each sample, Blank and vehicle control well by dividing the signal at 665 nm by the signal at 620 nm. Normalizing the signal accounts for possible fluorescence quenching due to the matrix effect of the lysate. The ΔF value (a measurement of Smn protein abundance as a percent value) for each sample well is calculated by subtracting the normalized average fluorescence for the Blank control wells from the normalized fluorescence for each sample well, then dividing this difference by the normalized average fluorescence for the Blank control wells and multiplying the resulting value by 100. The ΔF value for each sample well represents the Smn protein abundance from test compound-treated samples. The ΔF value for each sample well is divided by the ΔF value for the vehicle control wells to calculate the fold increase in Smn protein abundance relative to the vehicle control.
A general note: In TR-FRET formats the signal depends on donor and acceptor labels being close together.

For data set [1], the system named is SMN2 minigene mRNA (SMN2-A minigene construct). Description: SMN2 minigene mRNA splicing RT-qPCR assay in cultured cells. In kind it is cell-based, human. To be noted: Homo sapiens, HEK293-H; HEK293H cells stably transfected with SMN2-A minigene, 24 hours, 7-point concentration data; concentration giving 1.5-fold SMN2 full length mRNA relative to vehicle-treated cells; read-out: EC1.5x for production of full length SMN2 mRNA. On the procedure:
The reverse transcription-quantitative PCR-based (RT-qPCR) assay is used to quantify the level of the full length SMN2 minigene mRNA containing SMN2 exon 7 in a HEK293H cell line stably transfected with said minigene and treated with a test compound.
HEK293H cells stably transfected with the SMN2-A minigene construct described above (10,000 cells/well) are seeded in 200 μL of cell culture medium (DMEM plus 10% FBS, with 200 μg/mL hygromycin) in 96-well flat-bottom plates and the plate is immediately swirled to ensure proper dispersal of cells, forming an even monolayer of cells. Cells are allowed to attach for at least 4-6 hours. Test compounds are serially diluted 3.16-fold in 100% DMSO to generate a 7-point concentration curve. A solution of test compound (1 μL, 200× in DMSO) is added to each cell-containing well and the plate is incubated for 24 hours in a cell culture incubator (37° C., 5% CO2, 100% relative humidity). Two replicates are prepared for each test compound concentration. The cells are then lysed in Cells-To-Ct lysis buffer and the lysate is stored at −80° C.
Primer SMN Forward A (SEQ ID NO. 1) hybridizes to a nucleotide sequence in exon 7 (nucleotide 22 to nucleotide 40), primer SMN Reverse A (SEQ ID NO. 2) hybridizes to a nucleotide sequence in the coding sequence of Firefly luciferase, SMN Probe A (SEQ ID NO. 3) hybridizes to a nucleotide sequence in exon 7 (nucleotide 50 to nucleotide 54) and exon 8 (nucleotide 1 to nucleotide 21). The combination of these three oligonucleotides detects only SMN1 or SMN2 minigenes (RT-qPCR) and will not detect endogenous SMN1 or SMN2 genes.
The SMN forward and reverse primers are used at final concentrations of 0.4 μM. The SMN probe is used at a final concentration of 0.15 μM. The GAPDH primers are used at final concentrations of 0.2 μM and the probe at 0.15 μM.
The SMN2-minigene GAPDH mix (15 μL total volume) is prepared by combining 7.5 μL of 2×RT-PCR buffer, 0.4 μL of 25×RT-PCR enzyme mix, 0.75 μL of 20×GAPDH primer-probe mix, 4.0075 μL of water, 2 μL of 10-fold diluted cell lysate, 0.06 μL of 100 μM SMN forward primer, 0.06 μL of 100 μM SMN reverse primer, and 0.225 μL of 100 μM SMN probe.
PCR is carried out at the following temperatures for the indicated time: Step 1: 48° C. (15 min); Step 2: 95° C. (10 min); Step 3: 95° C. (15 sec); Step 4: 60° C. (1 min); then repeat Steps 3 and 4 for a total of 40 cycles.
Each reaction mixture contains both SMN2-A minigene and GAPDH primers/probe sets (multiplex design), allowing simultaneous measurement of the levels of two transcripts.
Two SMN spliced products are generated from the SMN2 minigene. The first spliced product containing exon 7, corresponding to SMN2 full length mRNA, is referred to herein using the term “SMN2 minigene FL.” The second spliced product lacking exon 7 is referred to herein using the term “SMN2 minigene Δ7.”
The increase of SMN2 minigene FL mRNA relative to that in cells treated with vehicle control is determined from real-time PCR data using a modified ΔΔCt method (as described in Livak and Schmittgen, Methods, 2001, 25:402-8). The amplification efficiency (E) is calculated from the slope of the amplification curve for SMN2 minigene FL and GAPDH individually. The abundances of SMN2 minigene FL and GAPDH are then calculated as (1+E)^−Ct, where Ct is the threshold value for each amplicon. The abundance of SMN2 minigene FL is normalized to GAPDH abundance. The normalized SMN2 minigene FL abundance from test compound-treated samples is then divided by normalized SMN2 minigene FL abundance from vehicle-treated cells to determine the level of SMN2 FL mRNA relative to vehicle control.
(In general: Real-time PCR tracks product formation cycle by cycle.)

On to `Cc1ccn2cc(-c3cc4ccc(N5CCN(C)[C@@H](C)C5)nc4oc3=O)nc2c1` [Cpd 61, 7-[(3S)-3,4-dimethylpiperazin-1-yl]-3-(7-methylimidazo[1,2-a]pyridin-2-yl)-2H-pyrano[2,3-b]pyridin-2-one], for which the melting point was in the range of 246 to 250 °C. In the data set with Smn protein, the “EC1.5x for Smn protein expression” value was “**** (an EC1.5×≦0.3 μM is indicated by four stars (****))”; the “maximum fold (Fold) increase of Smn protein” value (from here on “maximum fold (Fold) increase”) was “**** (a fold increase between >1.5 and ≦1.65 is indicated by four stars (****))”. In data set [1], the EC (1.5-fold) was ≤ 0.1 µM.

As for `C[C@@H]1CN(c2ccc3cc(-c4nc5c(Cl)cccc5s4)c(=O)oc3n2)C[C@H](C)N1C` [Cpd 71, 3-(4-chloro-1,3-benzothiazol-2-yl)-7-[(3R,5S)-3,4,5-trimethylpiperazin-1-yl]-2H-pyrano[2,3-b]pyridin-2-one], the melting point lay within 286 to 288 °C. For the same compound, the “maximum fold (Fold) increase” value with Smn protein was “** (a fold increase between >1.2 and ≦1.35 is indicated by two stars (**))”. For the same compound, the EC (1.5-fold) in data set [1] lay in the range of 0.1 to 0.3 µM.

In the case of `Cc1ccc2nc(-c3cc4ccc(N5C[C@@H](C)N[C@@H](C)C5)nc4oc3=O)cn2c1` [Cpd 67, 7-[(3R,5S)-3,5-dimethylpiperazin-1-yl]-3-(6-methylimidazo[1,2-a]pyridin-2-yl)-2H-pyrano[2,3-b]pyridin-2-one], the melting point fell in the range of 248 to 251 °C. Moreover, in the data set with Smn protein, the “EC1.5x for Smn protein expression” value is “*** (an EC1.5× between >0.3 μM and ≦1 μM is indicated by three stars (***))”; the “maximum fold (Fold) increase” value was “**** (a fold increase between >1.5 and ≦1.65 is indicated by four stars (****))”. The EC (1.5-fold) in data set [1] was ≤ 0.1 µM.

Consider `Cc1ccn2cc(-c3cc4ccc(N5C[C@H](C)NC[C@H]5C)nc4oc3=O)nc2c1` [Cpd 88, 7-[(2R,5S)-2,5-dimethylpiperazin-1-yl]-3-(7-methylimidazo[1,2-a]pyridin-2-yl)-2H-pyrano[2,3-b]pyridin-2-one], for which, in the data set with Smn protein, the “EC1.5x for Smn protein expression” value is on record as “**** (an EC1.5×≦0.3 μM is indicated by four stars (****))”; the “maximum fold (Fold) increase” value is “**** (a fold increase between >1.5 and ≦1.65 is indicated by four stars (****))”. For the same compound, the EC (1.5-fold) in data set [1] was ≤ 0.1 µM.

Turning to `C[C@H]1CN(c2ccc3cc(-c4cn5ccsc5n4)c(=O)oc3n2)CCN1.Cl` [Cpd 83, 3-(imidazo[2,1-b][1,3]thiazol-6-yl)-7-[(3S)-3-methylpiperazin-1-yl]-2H-pyrano[2,3-b]pyridin-2-one hydrochloride], in the data set on Smn protein, the “EC1.5x for Smn protein expression” value was “**** (an EC1.5×≦0.3 μM is indicated by four stars (****))”; the “maximum fold (Fold) increase” value is “**** (a fold increase between >1.5 and ≦1.65 is indicated by four stars (****))”. The EC (1.5-fold) in data set [1] is ≤ 0.1 µM.

Consider `CC(C)(C)OC(=O)N1CCN(c2cc3oc(=O)c(-c4nc5ccccc5s4)cc3cn2)CC1` [Cpd 7, tert-butyl 4-[3-(1,3-benzothiazol-2-yl)-2-oxo-2H-pyrano[3,2-c]pyridin-7-yl]piperazine-1-carboxylate], for which, in the data set on Smn protein, the “maximum fold (Fold) increase” value is on record as “* (A maximum fold increase ≦1.2 is indicated by one star (*))”. Besides, in data set [1], the EC (1.5-fold) fell in the range of 3 to 30 µM.

For the compound `C[C@H]1CN(c2ccc3cc(-c4cn5cccc(F)c5n4)c(=O)oc3n2)CCN1` [Cpd 64, 3-(8-fluoroimidazo[1,2-a]pyridin-2-yl)-7-[(3S)-3-methylpiperazin-1-yl]-2H-pyrano[2,3-b]pyridin-2-one], in the data set on Smn protein, the “EC1.5x for Smn protein expression” value is listed as “**** (an EC1.5×≦0.3 μM is indicated by four stars (****))”; the “maximum fold (Fold) increase” value was “**** (a fold increase between >1.5 and ≦1.65 is indicated by four stars (****))”. Also, the EC (1.5-fold) in data set [1] is ≤ 0.1 µM.

Consider `C[C@@H]1CN(c2ccc3cc(-c4cn5ccccc5n4)c(=O)oc3n2)CCN1.Cl` [Cpd 80, 3-(imidazo[1,2-a]pyridin-2-yl)-7-[(3R)-3-methylpiperazin-1-yl]-2H-pyrano[2,3-b]pyridin-2-one hydrochloride], for which, in the data set on Smn protein, the “EC1.5x for Smn protein expression” value is “**** (an EC1.5×≦0.3 μM is indicated by four stars (****))”; the “maximum fold (Fold) increase” value was “**** (a fold increase between >1.5 and ≦1.65 is indicated by four stars (****))”. Further, the EC (1.5-fold) in data set [1] was ≤ 0.1 µM.

With `O=c1oc2nc(N3CCN(CCCl)CC3)ccc2cc1-c1nc2ccccc2s1` [Cpd 4, 3-(1,3-benzothiazol-2-yl)-7-[4-(2-chloroethyl)piperazin-1-yl]-2H-pyrano[2,3-b]pyridin-2-one], the “maximum fold (Fold) increase” value in the data set on Smn protein was “** (a fold increase between >1.2 and ≦1.35 is indicated by two stars (**))”. For the same compound, in data set [1], the EC (1.5-fold) lay in the range of 1 to 3 µM.

For the compound `Cc1ccn2cc(-c3cc4ccc(N5CCNC[C@@H]5C)nc4oc3=O)nc2c1` [Cpd 59, 3-(7-methylimidazo[1,2-a]pyridin-2-yl)-7-[(2S)-2-methylpiperazin-1-yl]-2H-pyrano[2,3-b]pyridin-2-one], in the data set with Smn protein, the “EC1.5x for Smn protein expression” value is “**** (an EC1.5×≦0.3 μM is indicated by four stars (****))”; the “maximum fold (Fold) increase” value is “**** (a fold increase between >1.5 and ≦1.65 is indicated by four stars (****))”. The EC (1.5-fold) in data set [1] is ≤ 0.1 µM.

Turning to `C[C@@H]1CN(c2ccc3cc(-c4cn5ccsc5n4)c(=O)oc3n2)CCN1.Cl` [Cpd 84, 3-(imidazo[2,1-b][1,3]thiazol-6-yl)-7-[(3R)-3-methylpiperazin-1-yl]-2H-pyrano[2,3-b]pyridin-2-one hydrochloride], in the data set on Smn protein, the “EC1.5x for Smn protein expression” value is “**** (an EC1.5×≦0.3 μM is indicated by four stars (****))” and the “maximum fold (Fold) increase” value is “***** (a fold increase >1.65 is indicated by five stars (*****))”. Besides, the EC (1.5-fold) in data set [1] is ≤ 0.1 µM.
